The values below come from patent publication US10632105B2, “Pharmacological stimulation to facilitate and restore standing and walking functions in spinal cord motor disorders” (ECOLE POLYTECHNIQUE FEDERALE DE LAUSANNE (EPFL), priority 2013, dated 2020).

Entries after “also recorded” stand apart in the source; their conditions may differ.

Assay [1] is described as follows: 8-OHDPAT in combination with α2c stimulation and/or α2a blocking, locomotion. It is filed as in vivo. The note with it: 8-OHDPAT in combination with the α2c stimulation or the α2a blocking or both.
The test system of assay [2] is cats with a complete spinal cord injury. As to conditions: spinal / spinalized cats, complete SCI; cited from earlier work.
In a further assay the test system is rats with complete SCI. The note with it: rats with complete SCI (Musienko et al. 2011); cited from earlier work.
For the next assay, the system named is spinal rats. Description: Stepping patterns enabled by EES in spinal rats (complete T7 transection, bipedal treadmill). It is filed as in vivo, rat. The note with it: for locomotion / stepping enabled by EES: treadmill 13 cm/s, clonidine 0.4-0.5 mg/kg, BRL-44408 given 5 min before clonidine in the combination. As to the method: Link R E, Desai K, Hein L, Stevens M E, Chruscinski A, Bernstein D, Barsh G S, Kobilka B K. Science. 1996 Aug. 9; 273(5276):803-5).
All procedures have been described in detail previously (see above, Courtine et al., 2009). Briefly, under general anesthesia and aseptic conditions, a partial laminectomy was performed over spinal segments L2 and S1. Teflon-coated stainless-steel wires (AS632; Cooner Wire) were passed under the spinous processes and above the dura mater of the remaining vertebrae between the partial laminectomy sites.
Bipolar intramuscular EMG electrodes using the same wire type as above were inserted bilaterally in the midbelly of the tibialis anterior (TA), midbelly of the vastus lateralis (VL), distal deep compartment of the semitendinosus (St), and medial deep region of the medial gastrocnemius (MG) muscles. All electrode wires were connected to a percutaneous amphenol connector cemented to the rat skull. In the same surgical intervention, the spinal cord was transected completely at a midthoracic level (T7) (Courtine et al., 2009).
All experimental testing followed the same protocol.
In KO mice experiments, only clonidine was injected intraperitoneally.
Three-dimensional video recordings (200 Hz) were made using the motion capture system VICON. Eight infrared television cameras (200 Hz) were used to track the motion of reflective markers attached bilaterally at the iliac crest, greater trochanter, lateral condyle, lateral malleolus, distal end of the fifth metatarsal [metatarsophalangeal joint (MTP)], and tip of the toe (FIG. 1A). Nexus (Vicon) was used to obtain 3-D coordinates of the markers. The body was modeled as an interconnected chain of rigid segments, and joint angles were generated accordingly.
Moments and ground reaction forces in the vertical, antero-posterior, and mediolateral directions were monitored using a biomechanical force plate (2 kHz; HE6X6; AMTI) located below the treadmill belt (FIG. 1A). Vicon BodyBuilder (Vicon) was used to compute the displacements of the center of foot pressures.
EMG signals (2 kHz) were amplified, filtered (10-1000 Hz bandpass), stored, and analyzed off-line to compute the amplitude, duration, and timing of individual bursts (Courtine et al., 2009).
Ten successive step cycles were extracted for both the left and right hindlimbs from a continuous sequence of stepping on the treadmill for each animal under each condition. When no stepping movements were observed, a 10 s period was recorded and analyzed. A total of 129 parameters quantifying gait, kinematics, kinetics, and EMG features were computed for each limb and gait cycle according to methods described in detail previously (Kinematic and EMG determinants in quadrupedal locomotion of a non-human primate (Rhesus). Courtine G, Roy R R, Hodgson J, McKay H, Raven J, Zhong H, Yang H, Tuszynski M H, Edgerton V R. J Neurophysiol. 2005 June; 93(6):3127-45; Recovery of supraspinal control of stepping via indirect propriospinal relay connections after spinal cord injury. Courtine G, Song B, Roy R R, Zhong H, Herrmann J E, Ao Y, Qi J, Edgerton V R, Sofroniew M V. Nat Med. 2008 January; 14(1):69-74; Transformation of nonfunctional spinal circuits into functional states after the loss of brain input. Courtine G, Gerasimenko Y, van den Brand R, Yew A, Musienko P, Zhong H, Song B, Ao Y, Ichiyama R M, Lavrov I, Roy R R, Sofroniew M V, Edgerton V R. Nat Neurosci. 2009 October; 12(10): 1333-42).
These parameters provided a holistic quantification of locomotor patterns ranging from general features of gait to fine details of limb motions and coordination. To allow direct comparisons between the different experimental conditions, all computed variables were normalized to those measured before drug injection (i.e., during locomotion facilitated by dual-site EES alone).
All data are reported as mean values±SEM. Repeated-measures ANOVAs were used to test differences between locomotor parameters recorded before and after drug injections […]

Assay [3] relates to humans with a severe spinal cord injury. The note with it: cited from earlier work.
The subject of a further assay is α2c KO mice. As to conditions: spinal α2c KO mice, EES, clonidine i.p. As to the method:
(§1) The experiments in rats were conducted on adult female Sprague Dawley (300 g body weight). Functional testings in mice were carried out in α2a and α2c knockout animals aged 3-5 months, from both gender, obtained from L. Hein (University of Freiburg, Germany). The generation of the mouse lines lacking α2-adrenoreceptor subtypes has been previously described in detail (Abnormal regulation of the sympathetic nervous system in alpha2A-adrenergic receptor knockout mice. Altman J D, Trendelenburg A U, MacMillan L, Bernstein D, Limbird L, Starke K, Kobilka B K, Hein L. Mol Pharmacol. 1999 July; 56(1):154-61; Targeted inactivation of the gene encoding the mouse alpha 2c-adrenoceptor homolog. Link R E, Stevens M S, Kulatunga M, Scheinin M, Barsh G S, Kobilka B K. Mol Pharmacol. 1995 July; 48(1):48-55; Cardiovascular regulation in mice lacking alpha2-adrenergic receptor subtypes b and c. Link R E, Desai K, Hein L, Stevens M E, Chruscinski A, Bernstein D, Barsh G S, Kobilka B K. Science. 1996 Aug. 9; 273(5276):803-5). To investigate the spinal distribution of the α2 subtypes, we used BAC transgenic mice expressing the reporter protein GFP upstream the coding sequence of the α2a or α2c receptor subtype (strains 014248-UCD and 030098-UCD MMRRC, USA). All procedures were approved by the Veterinary Office of the Canton of Vaud, Switzerland. Animals were housed individually on a 12 h light/dark cycle, with access to food and water ad libitum.
(§2) All tested animals were allowed to recover for 2-5 weeks after lesion to regain stable levels of excitability in the spinal networks to facilitate locomotion via EES (Epidural stimulation induced modulation of spinal locomotor networks in adult spinal rats. Lavrov I, Dy C J, Fong A J, Gerasimenko Y, Courtine G, Zhong H, Roy R R, Edgerton V R. J Neurosci. 2008). An upper body harness was used to position the rats over a treadmill belt and to partially support their body weight during bipedal locomotion (FIG. 1A). An automated, servocontrolled body weight support system (Robomedica) measured and provided the optimal amount of body weight support that each rat needed to step. To facilitate locomotion via EES, monopolar rectangular pulses (0.2 ms duration) were delivered at 40 Hz using two constant-current stimulators (AM Systems) connected to the electrodes positioned at L2 and S1.

The next assay deals with α2a KO mice. The note with it: spinal α2a KO mice, EES, clonidine i.p. As to the method: as §1, §2
Setting [4] is: 5 weeks after lesion, with EES, i.p., BRL-44408 4-5 mg/kg.
[5] abbreviates: 2 weeks after lesion, 200 umol/kg, together with EES.
Where [6] appears, read: 5 weeks after lesion, with EES, i.p., BRL-44408 4-5 mg/kg, clonidine 0.4 mg/kg.

For the compound `CCCN(CCC)C1CCc2cccc(O)c2C1` (centres unmarked) [8-OHDPAT], in assay [1], the locomotion entry was “further facilitation of locomotion”.

For `Clc1ccc2nsnc2c1NC1=NCCN1` [tizanidine], in assay [2], the locomotion result is recorded as “facilitated expression of locomotion”.

Take `Clc1cccc(Cl)c1N=C1NCCN1` [clonidine]: the stepping result in the assay with rats with complete SCI is “abolished stepping”. In the assay with spinal rats (setting [4]), the “locomotion / stepping enabled by EES” value is “abolished the stepping enabled by EES”. In assay [2], the locomotion result is “marked facilitation of locomotion”. The locomotion result in assay [3] (human, clonidine injections (Dietz et al. 1995)) is “dysfacilitated locomotion”. In addition, the “locomotor EMG activity” value in assay [3] (humans with a severe spinal cord injury, low clonidine dosages (Dietz et al., 1995)) is reported as “suppress or markedly reduce locomotor EMG activity”. In addition, the locomotor abilities result in the assay with α2c KO mice was “significant blocking of the locomotor abilities”. Further, in the assay on α2a KO mice, the locomotor function result is reported as “triggered a facilitation of the locomotor function”, the locomotor stability result is given as “improvement of locomotor stability” and the “movement magnitudes of the hindlimb joints” value is “increase of the movement magnitudes of the hindlimb joints”.

On to `NC1=N[C@@H](Cc2c(F)cccc2F)CO1` [formula (I)], for which, in the assay on spinal rats (2 weeks after lesion, 200 umol/kg, effect exclusively when applied together with spinal cord stimulation (EES)), the locomotion entry is listed as “significantly improved locomotion”. For the same compound, in the assay with spinal rats (setting [5]), the limb amplitude entry is given as “increased the limb amplitude” and the paw dragging entry was “reduced the paw dragging”.

As to `CC1c2ccccc2CN1CC1=NCCN1` (centres unmarked) [BRL-44408, 2-[(4,5-Dihydro-1H-imidazol-2-yl)methyl]-2,3-dihydro-1-methyl-1H-isoindole], the “locomotion / stepping enabled by EES” value with spinal rats (setting [4]) was “improved locomotion; also recorded: moderately improves locomotion”. Further, in the assay on spinal rats (setting [6]), the paw dragging entry is listed as “reduced paw dragging” and the step height result is “substantially improved the step height”.
